# Test results: patent US6881741B2 (ViroChem Pharma Inc., priority 2001, dated 2005)
# pIC50: −log10 of the molar value. Structures can show the parent of a compound that is named as a salt.
# Biological target: recombinant HCV NS5B (HCV RNA-dependent RNA polymerase) (Hepatitis C virus genotype 1b, UniProt P26663)
# Assay: biochemical
# Conditions: HCV polymerase activity, list of compounds of Example 27; read-out: IC50 (polymerase activity)
# Sequence of recombinant HCV NS5B (HCV RNA-dependent RNA polymerase) (P26663 2420-3010 limits assumed): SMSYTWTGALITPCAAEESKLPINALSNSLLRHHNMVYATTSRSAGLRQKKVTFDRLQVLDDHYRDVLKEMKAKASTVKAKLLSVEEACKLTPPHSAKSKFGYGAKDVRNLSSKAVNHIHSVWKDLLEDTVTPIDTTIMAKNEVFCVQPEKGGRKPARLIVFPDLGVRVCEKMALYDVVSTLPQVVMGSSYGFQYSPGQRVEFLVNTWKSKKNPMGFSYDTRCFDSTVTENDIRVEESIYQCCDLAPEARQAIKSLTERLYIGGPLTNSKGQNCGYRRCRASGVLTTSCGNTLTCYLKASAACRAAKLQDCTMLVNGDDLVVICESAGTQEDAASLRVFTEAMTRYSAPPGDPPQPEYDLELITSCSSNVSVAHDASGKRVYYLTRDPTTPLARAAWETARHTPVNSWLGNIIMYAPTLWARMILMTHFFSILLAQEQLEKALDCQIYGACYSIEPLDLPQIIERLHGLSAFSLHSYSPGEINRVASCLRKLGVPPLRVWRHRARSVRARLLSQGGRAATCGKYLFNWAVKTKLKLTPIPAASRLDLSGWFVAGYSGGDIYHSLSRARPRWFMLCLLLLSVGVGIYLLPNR
row,SMILES,pIC50
1,"CC1=CCC(C(=O)N(c2cc(-c3ccccc3)sc2C(=O)O)C(C)C)C1 (stereo not shown) [Compound 405, 3-[ISOPROPYL-(3-METHYL-CYCLOPENT- 3-ENECARBONYL)-AMINO]-5-PHENYL- THIOPHENE-2-CARBOXYLIC ACID]",> 5.30
2,"O=C(O)c1sc(-c2ccccc2)cc1N(Cc1ccc(Cl)cc1)C(=O)C1CCC1 [Compound 461, 3-[(4-CHLORO-BENZYL)- CYCLOBUTANECARBONYL-AMINO]-5- PHENYL-THIOPHENE-2-CARBOXYLIC ACID]",4.70 to 5.30
3,"CC(C)CC(=O)N(Cc1cccc(Cl)c1)c1cc(-c2ccccc2)sc1C(=O)O [Compound 479, 3-[(3-CHLORO-BENZYL)-(3-METHYL- BUTYRYL)-AMINO]-5-PHENYL- THIOPHENE-2-CARBOXYLIC ACID]",> 5.30
4,"CCC(=O)N(Cc1ccc(Cl)cc1)c1cc(-c2ccccc2)sc1C(=O)O [Compound 456, 3-[(4-CHLORO-BENZYL)-PROPIONYL- AMINO]-5-PHENYL-THIOPHENE-2- CARBOXYLIC ACID]",> 5.30
5,"CC1CCC(C(=O)N(c2cc(-c3ccccc3)sc2C(=O)O)C2COCOC2)CC1 (stereo not shown) [Compound 554, 3-[[1,3]DIOXAN-5-YL-(4-METHYL- CYCLOHEXANECARBONYL)-AMINO]-5- PHENYL-THIOPHENE-2-CARBOXYLIC ACID]",> 5.30
6,"Cc1cccc(-c2cc(N(C(=O)C3CCC(C)CC3)C(C)C)c(C(=O)O)s2)c1 (stereo not shown) [Compound 448, 3-[ISOPROPYL-(4-METHYL- CYCLOHEXANECARBONYL)-AMINO]-5- #M!-TOLYL-THIOPHENE-2-CARBOXYLIC ACID]",> 5.30
7,"O=C(O)c1sc(-c2ccccc2)cc1N(C(=O)c1ccc(Cl)cc1Cl)C1CCC(C(=O)O)C1 (stereo not shown) [Compound 548, 3-[(3-CARBOXY-CYCLOPENTYL)-(2,4- DICHLORO-BENZOYL)-AMINO]-5- PHENYL-THIOPHENE-2-CARBOXYLIC ACID]",> 5.30
8,"CC(C)CC(=O)N(Cc1ccccc1)c1cc(-c2ccccc2)sc1C(=O)O [Compound 453, 3-[BENZYL-(3-METHYL-BUTYRYL)- AMINO]-5-PHENYL-THIOPHENE-2- CARBOXYLIC ACID]",> 5.30
9,"CCN(C(=O)CCC(C)C)c1cc(-c2ccccc2)sc1C(=O)O [Compound 494, 3-[ETHYL-(4-METHYL-PENTANOYL)- AMINO]-5-PHENYL-THIOPHENE-2- CARBOXYLIC ACID]",> 5.30
10,"CCCC1CCC(C(=O)N(c2cc(-c3ccccc3)sc2C(=O)O)C(C)C)CC1 (stereo not shown) [Compound 527, 3-[ISOPROPYL-(4-PROPYL- CYCLOHEXANECARBONYL)-AMINO]-5- PHENYL-THIOPHENE-2-CARBOXYLIC ACID]",> 5.30
11,"CCC(=O)N(Cc1ccc([N+](=O)[O-])cc1)c1cc(-c2ccccc2)sc1C(=O)O [Compound 418, 3-[(4-NITRO-BENZYL)-PROPIONYL- AMINO]-5-PHENYL-THIOPHENE-2- CARBOXYLIC ACID]",4.70 to 5.30
12,"Cc1cccc(CN(C(=O)CC2CCCC2)c2cc(-c3ccccc3)sc2C(=O)O)c1 [Compound 445, 3-[(2-CYCLOPENTYL-ACETYL)-(3- METHYL-BENZYL)-AMINO]-5-PHENYL- THIOPHENE-2-CARBOXYLIC ACID]",> 5.30
13,"C=CCN(C(=O)CCC(C)C)c1cc(-c2ccccc2)sc1C(=O)O [Compound 400, 3-[ALLYL-(4-METHYL-PENTANOYL)- AMINO]-5-PHENYL-THIOPHENE-2- CARBOXYLIC ACID]",4.70 to 5.30
14,"CC(C)N(C(=O)c1ccc(Cl)cc1Cl)c1cc(-c2ccc(-c3nnn[nH]3)cc2)sc1C(=O)O [Compound 430, 3-[(2,4-DICHLORO-BENZOYL)- ISOPROPYL-AMINO]-5-[4-(1#H!- TETRAZOL-5-YL)-PHENYL]-THIOPHENE- 2-CARBOXYLIC ACID]",> 5.30
15,"CC(COCc1ccccc1)N(C(=O)c1ccc(Cl)cc1Cl)c1cc(-c2ccccc2)sc1C(=O)O (stereo not shown) [Compound 516, 3-[(2-BENZYLOXY-1-METHYL-ETHYL)- (2,4-DICHLORO-BENZOYL)-AMINO]-5- PHENYL-THIOPHENE-2-CARBOXYLIC ACID]",> 5.30
16,"COCC(=O)N(Cc1cccc(Cl)c1)c1cc(-c2ccccc2)sc1C(=O)O [Compound 478, 3-[(3-CHLORO-BENZYL)-(2-METHOXY- ACETYL)-AMINO]-5-PHENYL-THIOPHENE- 2-CARBOXYLIC ACID]",< 4.70
17,"NC1CCCCC1N(C(=O)c1ccc(Cl)cc1Cl)c1cc(-c2ccccc2)sc1C(=O)O (stereo not shown) [Compound 549, 2-[(2-CARBOXY-5-PHENYL-THIOPHEN-3-YL)- (2,4-DICHLORO-BENZOYL)-AMINO]- CYCLOHEXYL-AMMONIUM; CHLORIDE]",> 5.30
18,"CCCC(=O)N(Cc1cccc(C)c1)c1cc(-c2ccccc2)sc1C(=O)O [Compound 446, 3-[BUTYRYL-(3-METHYL-BENZYL)- AMINO]-5-PHENYL-THIOPHENE-2- CARBOXYLIC ACID]",4.70 to 5.30
19,"COCC(=O)N(Cc1ccccc1)c1cc(-c2ccccc2)sc1C(=O)O [Compound 452, 3-[BENZYL-(2-METHOXY-ACETYL)- AMINO]-5-PHENYL-THIOPHENE-2- CARBOXYLIC ACID]",> 5.30
20,"CC[NH+](CC)c1ncc(CN(C(=O)c2ccc(Cl)cc2Cl)c2cc(-c3ccccc3)sc2C(=O)O)s1 [Compound 558, (5-{[[2-CARBOXY-5-PHENYL-THIOPHEN-3- YL)-(2,4-DICHLORO-BENZOYL)-AMINO]- METHYL}-THIAZOL-2-YL)-DIETHYL- AMMONIUM; CHLORIDE]",> 5.30

# Same assay, conditions: related polymerase activity (Example 27 list); read-out: IC50
row,SMILES,pIC50
1,"Cc1cccc(N2CCN(C(=O)Nc3cc(-c4ccccc4)sc3C(=O)O)CC2)n1 [Compound 182, 3-{[4-(6-METHYL-PYRIDIN-2-YL)-PIPERAZINE-1-CARBONYL]-AMINO}-5-PHENYL-THIOPHENE-2-CARBOXYLIC ACID HYDROCHLORIDE]",4.70 to 5.30
2,"CC(C)(C)c1ccc(S(=O)(=O)Nc2cc(-c3ccccc3)sc2C(=O)O)cc1 [Compound 32, 3-(4-TERT-BUTYL-BENZENESULFONYLAMINO)-5-PHENYL-THIOPHENE-2-CARBOXYLIC ACID]",4.70 to 5.30
3,"O=C(O)c1sc(-c2ccc(F)cc2)cc1NS(=O)(=O)c1ccc(F)cc1F [Compound 110, 3-(2,4-DIFLUORO-BENZENESULFONYLAMINO)-5-(4-FLUORO-PHENYL)-THIOPHENE-2-CARBOXYLIC ACID]",> 5.30
4,"Cc1ccccc1S(=O)(=O)Nc1cc(-c2ccc3c(c2)OCO3)sc1C(=O)O [Compound 202, 5-BENZO[1,3]DIOXOL-5-YL-3-(TOLUENE-2-SULFONYLAMINO)-THIOPHENE-2-CARBOXYLIC ACID]",> 5.30
5,"Cc1ccc(-c2cc(NS(=O)(=O)c3ccc(F)cc3F)c(C(=O)O)s2)cc1 [Compound 119, 3-(2,4-DIFLUORO-BENZENESULFONYLAMINO)-5-P-TOLYL-THIOPHENE-2-CARBOXYLIC ACID]",> 5.30
6,"CCOC(=O)c1ccccc1-c1cc(NS(=O)(=O)c2ccccc2C)c(C(=O)O)s1 [Compound 103, 5-(2-ETHOXYCARBONYL-PHENYL)-3-(TOLUENE-2-SULFONYLAMINO)-THIOPHENE-2-CARBOXYLIC ACID]",4.70 to 5.30
7,"CN(C(=O)Cc1ccccc1)c1cc(-c2ccccc2)sc1C(=O)O [Compound 175, 3-(METHYL-PHENYLACETYL-AMINO)-5-PHENYL-THIOPHENE-2-CARBOXYLIC ACID]",> 5.30
8,"Cc1noc(C)c1S(=O)(=O)Nc1cc(-c2ccccc2)sc1C(=O)O [Compound 94, 3-(3,5-DIMETHYL-ISOXAZOLE-4-SULFONYLAMINO)-5-PHENYL-THIOPHENE-2-CARBOXYLIC ACID]",4.70 to 5.30
9,"CN(C(=O)Cc1ccc(F)cc1)c1cc(-c2ccccc2)sc1C(=O)O [Compound 173, 3-{[2-(4-FLUORO-PHENYL)-ACETYL]-METHYL-AMINO}-5-PHENYL-THIOPHENE-2-CARBOXYLIC ACID]",> 5.30
10,"COC(=O)c1cc(S(=O)(=O)Nc2cc(-c3ccccc3)sc2C(=O)O)oc1C [Compound 154, 5-(2-CARBOXY-5-PHENYL-THIOPHEN-3-YLSULFAMOYL)-2-METHYL-FURAN-3-CARBOXYLIC ACID METHYL ESTER]",> 5.30
11,"CC(C)(C)c1cc(NS(=O)(=O)c2ccc(Cl)cc2)c(C(=O)O)s1 [Compound 10, 5-TERT-BUTYL-3-(4-CHLORO-BENZENESULFONYLAMINO)-THIOPHENE-2-CARBOXYLIC ACID]",> 5.30
12,"Cc1ccccc1S(=O)(=O)Nc1cc(-c2ccc([N+](=O)[O-])cc2)sc1C(=O)O [Compound 59, 5-(4-NITRO-PHENYL)-3-(TOLUENE-2-SULFONYLAMINO)-THIOPHENE-2-CARBOXYLIC ACID]",> 5.30
13,"Cc1ccccc1S(=O)(=O)Nc1cc(-c2ccc(OC(F)(F)F)cc2)sc1C(=O)O [Compound 60, 3-(TOLUENE-2-SULFONYLAMINO)-5-(4-TRIFLUOROMETHOXY-PHENYL)-THIOPHENE-2-CARBOXYLIC ACID]",> 5.30
14,"O=C(O)c1sc(-c2ccc(F)cc2)cc1NS(=O)(=O)c1ccccn1 [Compound 133, 5-(4-FLUORO-PHENYL)-3-(PYRIDINE-2-SULFONYLAMINO)-THIOPHENE-2-CARBOXYLIC ACID]",> 5.30
15,"O=C(O)c1sc(-c2ccc([N+](=O)[O-])cc2)cc1NS(=O)(=O)c1ccccn1 [Compound 129, 5-(4-NITRO-PHENYL)-3-(PYRIDINE-2-SULFONYLAMINO)-THIOPHENE-2-CARBOXYLIC ACID]",4.70 to 5.30
16,"CC(C)N(C(=O)c1ccc(Cl)cc1I)c1cc(-c2ccccc2)sc1C(=O)O [Compound 310, 3-[(4-CHLORO-2-IODO-BENZOYL)- ISOPROPYL-AMINO]-5-PHENYL- THIOPHENE-2-CARBOXYLIC ACID]",> 5.30
17,"C=CCN(C(=O)Cc1c(Cl)cccc1Cl)c1cc(-c2ccccc2)sc1C(=O)O [Compound 353, 3-{ALLYL-[2-(2,6-DICHLORO-PHENYL)- ACETYL]-AMINO}-5-PHENYL-THIOPHENE- 2-CARBOXYLIC ACID]",4.70 to 5.30
18,"Cc1ccc(C(=O)N(CCO)c2cc(-c3ccccc3)sc2C(=O)O)cc1 [Compound 203, 3-[(2-HYDROXY-ETHYL)-(4-METHYL-BENZOYL)-AMINO]-5-PHENYL-THIOPHENE-2-CARBOXYLIC ACID]",> 5.30
19,"Cc1cc(S(=O)(=O)Nc2cc(-c3ccccc3)sc2C(=O)O)c(C)cc1Cl [Compound 3, 3-(4-CHLORO-2,5-DIMETHYL-BENZENESULFONYLAMINO)-5-PHENYL-THIOPHENE-2-CARBOXYLIC ACID]",4.70 to 5.30
20,"Cc1ccccc1S(=O)(=O)Nc1cc(-c2ccc(Cl)cn2)sc1C(=O)O [Compound 191, 5-(5-CHLORO-PYRIDIN-2-YL)-3-(TOLUENE-2-SULFONYLAMINO)-THIOPHENE-2-CARBOXYLIC ACID]",> 5.30
